{
  "source": "paper PMC3017127",
  "about": "“Survey of Tyrosine Kinase Signaling Reveals ROS Kinase Fusions in Human Cholangiocarcinoma” (PLoS ONE, 2011)",
  "key": {"[1]": {"system": "T1, FIG-ROS(S)", "T1 construct": "gene ROS1; C-terminal Myc tag; MSCV-Neo in murine BaF3 cells; with Golgi-associated PDZ and coiled-coil motif-containing protein", "test": "BaF3 cell viability (CellTiter […] AQueous One, MTS), IL-3-independent growth", "assay_type": "cell-based, Mus musculus", "conditions": "72 h; growth read-out of cells depending on the fusion kinase; ROS phosphorylation read by Western blot in a separate 3 h test"}, "[2]": {"system": "T2, NPM-ALK", "T2 construct": "endogenous NPM-ALK fusion in Karpas-299 cells; with Nucleophosmin", "test": "Karpas-299 cell viability (CellTiter […] AQueous One, MTS)", "assay_type": "cell-based", "conditions": "72 h; growth read-out of human lymphoma cells with endogenous fusion; control line"}, "[3]": {"system": "T3, FIG-ROS(L)", "T3 construct": "gene ROS1; C-terminal Myc tag; MSCV-Neo in murine BaF3 cells; with Golgi-associated PDZ and coiled-coil motif-containing protein", "test": "BaF3 cell viability (CellTiter […] AQueous One, MTS), IL-3-independent growth", "assay_type": "cell-based, Mus musculus", "conditions": "72 h; growth read-out of cells depending on the fusion kinase; ROS phosphorylation read by Western blot in a separate 3 h test"}},
  "data": [
    {"compound": "COc1cc(N2CCC(N3CCN(C)CC3)CC2)ccc1Nc1ncc(Cl)c(Nc2ccccc2S(=O)(=O)C(C)C)n1", "note": "[TAE684]", "values": [
      {"measurement": "IC50", "setting": "[1]", "value": 10, "unit": "nM"},
      {"measurement": "IC50", "setting": "[2]", "value": "[…]"},
      {"measurement": "IC50", "setting": "[3]", "value": 1.8, "unit": "nM"}
    ]}
  ]
}
